Experimental data as given in patent publication US12187713B2, “Immunomodulators, compositions and methods thereof” (Betta Pharmaceuticals Co., Ltd, priority 2019, dated 2025).

What was measured:
[1] = Pharmacokinetic Assay, single oral dose 5 mg/kg (Table 12); assay type: in vivo; details: mouse, plasma concentration, C57 female mice, single oral dose 5 mg/kg
Procedure: Adult C57 female mice were received to single-dose of the test compounds with 15% DMSO, 10% Kolliphor^@HS 15 and 75% saline as excipients, the mice (n=3) were giving oral administration (intragastric administration) with the compounds at a dose of 5 mg/kg. Time of blood collection: 30 min, 2 h, 4 h. approximately 0.1 mL of whole blood was collected from retro-orbital venous plexus, and placed into tubes that contained K2-EDTA as an anticoagulant. The whole blood were centrifuged at 4° C. and 4000 rpm for 10 min. The plasma was transferred into centrifuge tubes, and stored at −20° C. until being analyzed. Concentrations of test compounds in the plasma samples were analyzed with liquid chromatography-tandem mass spectrometry (LC-MS/MS). Plasma concentration-time data of individual animals was analyzed using Microsoft Excel 2010.

[2] = target: PD-1/PD-L1 (Homo sapiens (Human), UniProt Q9NZQ7); experiment: PD-1/PD-L1 Binding Assay (Alphascreen)
Summary of the method: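 PD-1/PD-L1 binding detected by anti-6×His acceptor and streptavidin donor beads after 120 min in the dark at 25 °C. Beforehand, the two proteins were incubated 15 min at 25 °C with inhibitor at 0.015–300 nM (1% DMSO). IC50 comes from a log concentration–response curve.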

PD-1/PD-L1, sequence (Q9NZQ7 19-238): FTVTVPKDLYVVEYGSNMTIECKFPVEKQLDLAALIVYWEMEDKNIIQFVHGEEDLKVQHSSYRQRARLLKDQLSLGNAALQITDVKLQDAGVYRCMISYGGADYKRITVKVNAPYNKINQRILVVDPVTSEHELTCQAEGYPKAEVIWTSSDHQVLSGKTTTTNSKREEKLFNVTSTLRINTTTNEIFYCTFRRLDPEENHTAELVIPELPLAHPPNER

COc1nc(-c2cccc(-c3cccc(-c4nc5cc(CN6CCC[C@H]6C(=O)O)c(OC(F)F)cc5o4)c3C)c2C)ccc1CNCC1CCC(=O)N1 (stereo partly drawn) [Example 276, ((6-(difluoromethoxy)-2-(3′-(6-methoxy-5-((((5-oxopyrrolidin-2-yl)methyl)amino)methyl)pyridin-2-yl)-2,2′-dimethyl-[1,1′-biphenyl]-3-yl)benzo[d]oxazol-5-yl)methyl)-L-proline]
concentration at 0.5 h [1]: 131 ng/mL | concentration at 2 h [1]: 291 ng/mL | concentration at 4 h [1]: 238 ng/mL | IC50 ([2]; range symbols): 0.1 to 5 nM

Cc1c(-c2nc3cc(CN4CCCC4)c(OC(F)F)cc3o2)cccc1-c1cccc(-c2nc3cc(CN4CCC[C@@H]4C(=O)O)c(OC(F)F)cc3o2)c1C [Example 66, ((6-(difluoromethoxy)-2-(3′-(6-(difluoromethoxy)-5-(pyrrolidin-1-ylmethyl)benzo[d]oxazol-2-yl)-2,2′-dimethyl-[1,1′-biphenyl]-3-yl)benzo[d]oxazol-5-yl)methyl)-D-proline]
concentration at 2 h [1]: 137 ng/mL | concentration at 4 h [1]: 111 ng/mL | IC50 ([2]; numeric values): 1.8 nM

Cc1c(-c2nc3cc(CN4CC(C)C4)c(OC(F)F)cc3o2)cccc1-c1cccc(-c2nc3cc(CN4CCC[C@H]4C(=O)O)c(OC(F)F)cc3o2)c1C [Example 56, ((6-(difluoromethoxy)-2-(3′-(6-(difluoromethoxy)-5-((3-methylazetidin-1-yl)methyl)benzo[d]oxazol-2-yl)-2,2′-dimethyl-[1,1′-biphenyl]-3-yl)benzo[d]oxazol-5-yl)methyl)-L-proline]
concentration at 0.5 h [1]: 19.9 ng/mL | concentration at 2 h [1]: 192 ng/mL | concentration at 4 h [1]: 155 ng/mL | IC50 ([2]; numeric values): 0.83 nM

Cc1c(-c2nc3cc(CN4CCC[C@H]4C(=O)O)c(OC(F)F)cc3o2)cccc1-c1cccc(-c2nc3cc(CN4CCCC4)cc(C#N)c3o2)c1C [Example 127, ((2-(3′-(7-cyano-5-(pyrrolidin-1-ylmethyl)benzo[d]oxazol-2-yl)-2,2′-dimethyl-[1,1′-biphenyl]-3-yl)-6-(difluoromethoxy)benzo[d]oxazol-5-yl)methyl)-L-proline]
concentration at 0.5 h [1]: 61.3 ng/mL | concentration at 2 h [1]: 253 ng/mL | concentration at 4 h [1]: 216 ng/mL | IC50 ([2]; numeric values): 3.1 nM

Cc1c(-c2nc3cc(CN4CC=CC4)c(OC(F)F)cc3o2)cccc1-c1cccc(-c2nc3cc(CN4CCC[C@H]4C(=O)O)c(OC(F)F)cc3o2)c1C [Example 70, ((6-(difluoromethoxy)-2-(3′-(6-(difluoromethoxy)-5-((2,5-dihydro-1H-pyrrol-1-yl)methyl)benzo[d]oxazol-2-yl)-2,2′-dimethyl-[1,1′-biphenyl]-3-yl)benzo[d]oxazol-5-yl)methyl)-L-proline]
concentration at 0.5 h [1]: 36.4 ng/mL | concentration at 2 h [1]: 151 ng/mL | concentration at 4 h [1]: 158 ng/mL | IC50 ([2]; numeric values): 3.3 nM

Cc1c(-c2nc3cc(CN4CCC[C@H]4C(=O)O)c(OC(F)F)cc3o2)cccc1-c1cccc(-c2nc3cc(CN4CC[C@@H](C#N)C4)cc(C#N)c3o2)c1C [Example 165, ((2-(3′-(7-cyano-5-(((R)-3-cyanopyrrolidin-1-yl)methyl)benzo[d]oxazol-2-yl)-2,2′-dimethyl-[1,1′-biphenyl]-3-yl)-6-(difluoromethoxy)benzo[d]oxazol-5-yl)methyl)-L-proline]
concentration at 0.5 h [1]: 376 ng/mL | concentration at 2 h [1]: 404 ng/mL | concentration at 4 h [1]: 219 ng/mL | IC50 ([2]; range symbols): 0.1 to 5 nM

Cc1c(-c2cnc(N3CCCC3)nc2)cccc1-c1cccc(-c2nc3cc(CN4CCC[C@H]4C(=O)O)c(OC(F)F)cc3o2)c1C [Example 283, ((6-(difluoromethoxy)-2-(2,2′-dimethyl-3′-(2-(pyrrolidin-1-yl)pyrimidin-5-yl)-[1,1′-biphenyl]-3-yl)benzo[d]oxazol-5-yl)methyl)-L-proline]
concentration at 0.5 h [1]: 522 ng/mL | concentration at 2 h [1]: 1170 ng/mL | concentration at 4 h [1]: 965 ng/mL | IC50 ([2]; range symbols): 5 to 50 nM

Cc1c(-c2nc3cc(CN4CCC[C@H]4C(=O)O)c(OC(F)F)cc3o2)cccc1-c1cccc(-c2nc3cc(CN4CCCC4)c(F)c(F)c3n2CC(F)(F)F)c1C [Example 299, ((2-(3′-(6,7-difluoro-5-(pyrrolidin-1-ylmethyl)-1-(2,2,2-trifluoroethyl)-1H-benzo[d]imidazol-2-yl)-2,2′-dimethyl-[1,1′-biphenyl]-3-yl)-6-(difluoromethoxy)benzo[d]oxazol-5-yl)methyl)-L-proline]
concentration at 0.5 h [1]: 27.9 ng/mL | concentration at 2 h [1]: 212 ng/mL | concentration at 4 h [1]: 89.2 ng/mL | IC50 ([2]; range symbols): > 50 nM

Cc1c(-c2nc3c(o2)CCC3)cccc1-c1cccc(-c2nc3cc(CN4CCC[C@H]4C(=O)O)c(OC(F)F)cc3o2)c1C [Example 204, ((6-(difluoromethoxy)-2-(3′-(5,6-dihydro-4H-cyclopenta[d]oxazol-2-yl)-2,2′-dimethyl-[1,1′-biphenyl]-3-yl)benzo[d]oxazol-5-yl)methyl)proline]
concentration at 0.5 h [1]: 740 ng/mL | concentration at 2 h [1]: 872 ng/mL | concentration at 4 h [1]: 820 ng/mL | IC50 ([2]; range symbols): 0.1 to 5 nM

C=C1CN(Cc2cc3nc(-c4cccc(-c5cccc(-c6nc7cc(CN8CCC[C@H]8C(=O)O)c(OC(F)F)cc7o6)c5C)c4C)oc3cc2OC(F)F)C1 [Example 81, ((6-(difluoromethoxy)-2-(3′-(6-(difluoromethoxy)-5-((3-methyleneazetidin-1-yl)methyl)benzo[d]oxazol-2-yl)-2,2′-dimethyl-[1,1′-biphenyl]-3-yl)benzo[d]oxazol-5-yl)methyl)-L-proline]
concentration at 0.5 h [1]: 115 ng/mL | concentration at 2 h [1]: 468 ng/mL | concentration at 4 h [1]: 383 ng/mL | IC50 ([2]; range symbols): 5 to 50 nM

Cc1c(-c2nc3cc(CN4CCC[C@H]4C(=O)O)c(OC(F)F)cc3o2)cccc1-c1cccc(-c2nc3cc(CN4[C@H]5CC[C@@H]4CC5)c(OC(F)F)cc3o2)c1C [Example 72, ((2-(3′-(5-(((1s,4s)-7-azabicyclo[2.2.1]heptan-7-yl)methyl)-6-(difluoromethoxy)benzo[d]oxazol-2-yl)-2,2′-dimethyl-[1,1′-biphenyl]-3-yl)-6-(difluoromethoxy)benzo[d]oxazol-5-yl)methyl)-L-proline]
concentration at 0.5 h [1]: 42.6 ng/mL | concentration at 2 h [1]: 140 ng/mL | concentration at 4 h [1]: 132 ng/mL | IC50 ([2]; numeric values): 0.98 nM

Cc1c(-c2nc3c(o2)CCN(CCC(F)(F)F)C3)cccc1-c1cccc(-c2nc3cc(CN4CCC[C@H]4C(=O)O)c(OC(F)F)cc3o2)c1C [Example 198, ((6-(difluoromethoxy)-2-(2,2′-dimethyl-3′-(5-(3,3,3-trifluoropropyl)-4,5,6,7-tetrahydrooxazolo[4,5-c]pyridin-2-yl)-[1,1′-biphenyl]-3-yl)benzo[d]oxazol-5-yl)methyl)proline]
concentration at 0.5 h [1]: 674 ng/mL | concentration at 2 h [1]: 1440 ng/mL | concentration at 4 h [1]: 1100 ng/mL | IC50 ([2]; range symbols): > 50 nM

Cc1c(-c2nc3cc(CN4CC(C#N)C4)c(OC(F)F)cc3o2)cccc1-c1cccc(-c2nc3cc(CN4CCC[C@H]4C(=O)O)c(OC(F)F)cc3o2)c1C [Example 80, ((2-(3′-(5-((3-cyanoazetidin-1-yl)methyl)-6-(difluoromethoxy)benzo[d]oxazol-2-yl)-2,2′-dimethyl-[1,1′-biphenyl]-3-yl)-6-(difluoromethoxy)benzo[d]oxazol-5-yl)methyl)-L-proline]
concentration at 0.5 h [1]: 247 ng/mL | concentration at 2 h [1]: 299 ng/mL | concentration at 4 h [1]: 167 ng/mL | IC50 ([2]; range symbols): 5 to 50 nM

Cc1c(COc2cc(OCc3cncc(OC(F)F)c3)c(CN3CCC(F)C3)cc2Cl)cccc1-c1cccc(-c2nc3cc(CN4CCC[C@H]4C(=O)O)c(OC(F)F)cc3o2)c1C (stereo partly drawn) [Example 209, ((2-(3′-((2-chloro-5-((5-(difluoromethoxy)pyridin-3-yl)methoxy)-4-((3-fluoropyrrolidin-1-yl)methyl)phenoxy)methyl)-2,2′-dimethyl-[1,1′-biphenyl]-3-yl)-6-(difluoromethoxy)benzo[d]oxazol-5-yl)methyl)-L-proline]
concentration at 0.5 h [1]: 21.4 ng/mL | concentration at 2 h [1]: 54.9 ng/mL | concentration at 4 h [1]: 19.2 ng/mL | IC50 ([2]; numeric values): 1.4 nM

COc1nc(-c2cccc(-c3cccc(-c4nc5cc(CN6CCC[C@H]6C(=O)O)c(OC(F)F)cc5o4)c3C)c2C)ccc1CN1CC[C@H](C)C1 [Example 246, ((6-(difluoromethoxy)-2-(3′-(6-methoxy-5-(((S)-3-methylpyrrolidin-1-yl)methyl)pyridin-2-yl)-2,2′-dimethyl-[1,1′-biphenyl]-3-yl)benzo[d]oxazol-5-yl)methyl)-L-proline]
concentration at 0.5 h [1]: 87.2 ng/mL | concentration at 2 h [1]: 261 ng/mL | concentration at 4 h [1]: 285 ng/mL | IC50 ([2]; numeric values): 1.8 nM

COC1CCN(Cc2ccc(-c3cccc(-c4cccc(-c5nc6cc(CN7CCC[C@H]7C(=O)O)c(OC(F)F)cc6o5)c4C)c3C)cc2)C1 (stereo partly drawn) [Example 227, ((6-(difluoromethoxy)-2-(4″-((3-methoxypyrrolidin-1-yl)methyl)-2,2′-dimethyl-[1,1′:3′,1″-terphenyl]-3-yl)benzo[d]oxazol-5-yl)methyl)-L-proline]
concentration at 0.5 h [1]: 36.9 ng/mL | concentration at 2 h [1]: 149 ng/mL | concentration at 4 h [1]: 114 ng/mL | IC50 ([2]; numeric values): 4.1 nM

Cc1c(-c2nc3cc(CN(C)[C@@H]4CCC[C@H]4O)c(OC(F)F)cc3o2)cccc1-c1cccc(-c2nc3cc(CN4CCC[C@H]4C(=O)O)c(OC(F)F)cc3o2)c1C [Example 57, ((6-(difluoromethoxy)-2-(3′-(6-(difluoromethoxy)-5-((((1R,2R)-2-hydroxycyclopentyl) (methyl)amino)methyl)benzo[d]oxazol-2-yl)-2,2′-dimethyl-[1,1′-biphenyl]-3-yl)benzo[d]oxazol-5-yl)methyl)-L-proline]
concentration at 0.5 h [1]: 27.1 ng/mL | concentration at 2 h [1]: 149 ng/mL | concentration at 4 h [1]: 90 ng/mL | IC50 ([2]; numeric values): 1.2 nM
